In US20220162221A1, “Imaging Agents” (UCB Biopharma SRL, priority 2017, published 2022):
Each block holds one compound with its values, some of them ahead of it.

Columns and labels:
D1 receptor [1] = assay: In vivo PET imaging in cynomolgus monkey
Experimental: Experiment was performed in a cynomolgus monkey (Female, body weight 6.02 kg). The monkeys were sedated using intramuscular injection of ketamine and kept anesthetized using a mixture of sevoflurane, oxygen and medical air for the duration of the experiment. A baseline scan was performed following intravenous administration of 141 MBq of (−)-(Ia) at a specific activity of 795 GBq/μmol and PET images of the brain were acquired using the Siemens HRRT PET scanner (Siemens Preclinical Solutions, Knoxville, Tenn.).
(§1) Data were acquired for 123 min and binned into sinograms with the following frame timing: 9×20 sec; 3×1 min; 5×3 min; and 17×6 min. Regions of interest used in this study were caudate nucleus, putamen, cerebellum, frontal cortex, occipital cortex, globus pallidus, midbrain, ventral striatum, thalamus and temporal cortex. Registration parameters were obtained to apply the regions of interests to the PET scan and regional time-activity curves (TACs) were generated. Venous blood samples were withdrawn at 4, 15, 30, 60, 90, 120 minutes after (−)-(Ie) administration for metabolite analysis.

[2] = Metabolite profile by radio-HPLC of venous blood samples; format: in vivo, cynomolgus monkey; conditions: for metabolites detected (words): venous blood, radio-HPLC
Experimental: as §1
The profile of metabolites of (−)-Ia was determined by radio-HPLC analysis of the venous blood samples collected post-administration at several timepoints. The parent fraction in plasma is 85% at 15 minutes, 60% at 30 minutes and still about 45% at 60 minutes.

hD1R in SK-N-MC cells = hD1R in SK-N-MC cells (Homo sapiens, UniProt P21728); assay: cAMP HTRF D1 functional assay; conditions: for Erel: relative efficacy compared to dopamine maximum response, SK-N-MC cells
Sequence of hD1R in SK-N-MC cells (P21728 whole entry): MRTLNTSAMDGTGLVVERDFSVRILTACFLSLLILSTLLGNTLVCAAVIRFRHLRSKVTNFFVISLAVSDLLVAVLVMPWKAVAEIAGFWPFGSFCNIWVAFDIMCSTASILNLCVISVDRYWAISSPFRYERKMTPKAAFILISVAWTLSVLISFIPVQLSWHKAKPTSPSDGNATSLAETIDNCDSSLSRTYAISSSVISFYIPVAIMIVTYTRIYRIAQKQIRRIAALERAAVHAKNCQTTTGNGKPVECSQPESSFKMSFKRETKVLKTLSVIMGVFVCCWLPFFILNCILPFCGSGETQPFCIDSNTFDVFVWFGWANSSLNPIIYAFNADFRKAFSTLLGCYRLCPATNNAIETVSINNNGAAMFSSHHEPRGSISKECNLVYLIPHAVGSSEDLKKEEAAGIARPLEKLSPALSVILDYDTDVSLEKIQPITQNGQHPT
Experimental: The reaction was terminated by consecutive additions of 10 μL d2 detection reagent and the cryptate reagent both diluted in lysis buffer. After a period of 60 min at room temperature, changes in HTRF emission ratio were determined and transformed in [cAMP]i using a standard curve.

D1 receptor [3] = assay: In vivo potentiation PET imaging with D1 PAM; parameters: species or system cynomolgus monkeys (Macaca fascicularis); conditions: FIG. 5, Compound-B 20 mg/kg
Experimental: Two cynomolgus monkeys (Macaca fascicularis) housed at the MPI Research (Mattawan, Mich.), were used as research subjects for the in vivo potentiation PET studies.
Each animal was anesthetized with propofol iv bolus (2.5-5.0 mk/kg) and maintained with propofol iv Continuous Rate Infusion (CRI, 0.1-0.6 mg/kg/min). for at least 30 minutes prior to initiation of Compound-B i.v. dose administration. Several dose levels were administered. […]
Following Compound (−)-Ib administration, arterial blood samples were drawn from the central iliac artery prior to the dosing with Compound (−)-Ib and at 13 time points up to 120 min post-injection of Compound (−)-Ib. All blood samples were collected in anticoagulant tubes and stored on wet ice until quantification for radioactivity by gamma counter, measure of Compound (−)-Ib parent fraction in plasma over time by HPLC and Compound (−)-Ib ex vivo stability in blood.
Reconstructed dynamic brain PET images were transferred and analyzed using the image processing PMOD software package (PMOD Technologies, Zurich, Switzerland). […] Subsequent PET images acquired during drug studies were aligned first to the baseline images and then transformed into the common MR template space using the already calculated transformation from the baseline images. […]

D1 receptor [4] = molecular target: T1, D1 receptor (Macaca mulatta, UniProt O77680); assay: Autoradiography on NHP brain slices; format: binding
T1 construct: 12 μm brain slices were prepared from fresh frozen NHP brain hemisphere; tissue Motac (Bordeaux, France); host or cells: Macaca mulatta brain sections (caudate putamen)
T1 sequence (O77680 whole entry): as the sequence (P21728 whole entry) above, with N311I counted along it
Experimental: Brain sections from non-human primate (NHP) Macaca mulatta were provided by Motac (Bordeaux, France) where all animal experiments were performed in accordance with european animal use ethical guidance and legislation.
12 μm brain slices were prepared from fresh frozen NHP brain hemisphere and were placed on glass microscopy slide. Autoradiography experiment was performed at room temperature in HBSS HEPES buffer (pH 7.4). NHP brain sections first equilibrated for 30 min before to be incubated for one hour with [^3H]compound in 1% DMSO. Slides were then washed in iced-cold 50 mM Tris-HCl buffer (pH 7.4) for 5 min followed by two washes in iced-cold distilled water. Sections were dried under atmospheric pressure at room temperature. Radioactivity on slice was either measured indirectly after exposure of slides to a phosphor screen, either using a direct counter. In every autoradiography experiments, a [^3H]standard was included for quantification and the NSB was defined as the residual binding of [^3H]compound observed in the presence of 10 μM non-labeled compound.

human D1R = human D1R (Homo sapiens, UniProt P21728); assay: Radioligand binding on HEK hD1R membranes with or without D1 PAM; parameters: expressed in transfected cells; host or cells: HEK cells, transient transfection, pcDNA3.1; membrane preparation
Sequence of human D1R (P21728 whole entry): as the sequence (P21728 whole entry) above
Experimental: Transient transfection of human dopamine D1R was performed with pcDNA3.1 vector in human embryonic kidney cells (HEK hD1R).
The membrane of HEK hD1R cells were used to measure radioligand binding. 48 hours post transfection, cells were pelleted by centrifugation at 1,500 g and 4° C. for 10 min. Pellet was washed once with ice-cold phosphate buffered saline solution (PBS) and centrifuged as described just above. Pellet was homogenized in a buffer containing 15 mM Tris-HCl, 0.3 mM ethylene diamine tetraacetic acid, 1 mM ethylene glycol tetraacetic acid, 2 mM MgCl2 (pH 7.5) and complemented with protease inhibitor cocktail. The homogenate was freeze-thawed twice and equilibrated at 25° C. followed by a 10 min DNAse (10 U/ml) treatment. Subsequently, the solution was centrifuged at 40,000 g and 4° C. for 30 min. Finally, the pellet was resuspended in 20 mM Tris-HCl buffer (pH 7.4) containing 250 mM sucrose and store at −80° C. until D1 radioligand binding assay. […] At the end of the incubation period, the protein-bound radioligand was recovered by filtration through pre-soaked GF/B glass fiber filters. Filters were washed with at least 4 times the assay volume of ice-cold 50 mM Tris-HCl buffer (pH 7.4). […] The filters were dried and the radioactivity determined by liquid scintillation.
Competition/potentiation binding experiments were carried out at constant (−)-(Ic) concentration (1-4 nM) and 10 increasing concentrations of (−)-(Ic) or compound b (10^−10 M to 10^−5 M).

[5] = Logan reference tissue model, cerebellum as reference
[6] = saturation binding, 10 μM D1 PAM, HEK hD1R membranes (FIG. 3B)

Compound: Cc1c(-c2ccc(Oc3nccc4occc34)cc2CF)n(C)c(=O)[nH]c1=O (single isomer, unassigned) [(−)-(Ia), [^11C]-6-(2-(fluoromethyl)-4-(furo[3,2-c]pyridin-4-yloxy)phenyl)-1,5-dimethylpyrimidine-2,4(1H,3H)-dione]
brain uptake pattern (D1 receptor [1]; PET images, summed SUV 33-63 minutes): uptake pattern consistent with the reported distribution of D1-like receptors in the brain

Compound: Cc1c(-c2ccc(Oc3nccc4occc34)cc2CF)n([11CH3])c(=O)[nH]c1=O (single isomer, unassigned) [(−)-(Ia), [^11C]-6-(2-(fluoromethyl)-4-(furo[3,2-c]pyridin-4-yloxy)phenyl)-1,5-dimethylpyrimidine-2,4(1H,3H)-dione]
peak uptake SUV (D1 receptor [1]; 5-10 minutes post-administration, across brain regions, iv): 3.5-4
binding potential (BPND), caudate (D1 receptor [1]; [5]): 0.94
binding potential (BPND), putamen (D1 receptor [1]; [5]): 0.87
SUV in caudate and putamen (D1 receptor [1]; at 60 minutes): about 2
SUV in cerebellum (D1 receptor [1]; at 60 minutes): about 1
parent fraction in plasma ([2]; at 15 minutes): 85%
parent fraction in plasma ([2]; at 30 minutes): 60%
parent fraction in plasma ([2]; at 60 minutes): about 45%
metabolites detected (words) ([2]; listed as (Ia)): no associated lipophilic metabolite
metabolites detected (words) ([2]; listed as (−)-Ia): only hydrophilic metabolites unlikely to cross the blood-brain barrier have been detected

Compound: Cc1c(-c2ccc(Oc3nccc4occc34)cc2C[18F])n(C)c(=O)[nH]c1=O [(−)-(Ib), [^18]-6-(2-(fluoromethyl)-4-(furo[3,2-c]pyridin-4-yloxy)phenyl)-1,5-dimethylpyrimidine-2,4(1H,3H)-dione]
effect of D1 PAM on tracer binding/uptake in vivo (words) (D1 receptor [3]): significantly improved binding properties
effect of D1 PAM on tracer binding/uptake in vivo (words) (D1 receptor [3]; listed as (−)-Ib): increased uptake

Now from value to compound, other results behind:

EC50 (hD1R in SK-N-MC cells): 5.01 nM
agonist-like effect on D1 receptor (hD1R in SK-N-MC cells; cAMP HTRF): D1 partial agonist-like effect
Erel (hD1R in SK-N-MC cells): 53 ± 13%
Erel (hD1R in SK-N-MC cells; listed as (−)-I): 53%
Compound: Cc1c(-c2ccc(Oc3nccc4occc34)cc2CF)n(C)c(=O)[nH]c1=O (single isomer, unassigned) [Compound (−)-(I), 6-(2-(fluoromethyl)-4-(furo[3,2-c]pyridin-4-yloxy)phenyl)-1,5-dimethylpyrimidine-2,4(1H,3H)-dione]

specific binding in the presence of a D1 PAM (D1 receptor [4]; NHP brain slices, FIG. 4): significantly increased
Total Binding in caudate putamen (words) (D1 receptor [4]; NHP brain slices, listed as (Ic)): significantly binds in caudate putamen
Total Binding in caudate putamen (words) (D1 receptor [4]; NHP brain slices, listed as (−)-Ic): significant binding
non specific binding (D1 receptor [4]; in the presence of 10 μM compound (I), caudate putamen): 20%
potentiation of radioligand binding by D1 PAM (human D1R; low nanomolar radioligand concentration (1-4 nM), FIG. 3C): > 50%
decrease of KD by D1 PAM (human D1R; [6]): 20%
increase of Bmax by D1 PAM (human D1R; [6]): 45%
Compound: [^3H]-6-(2-(fluoromethyl)-4-(furo[3,2-c]pyridin-4-yloxy)phenyl)-1,5-dimethylpyrimidine-2,4(1H,3H)-dione [(−)-(Ic)]
effect of D1 PAM on radioligand binding (human D1R; HEK hD1R membranes (FIG. 3)): significantly improved binding properties
